Data set [1] concerns spontaneous hypertensive rats (SHR). As to the kind of experiment: Hypotensive effect on spontaneous hypertensive rats (intravenously) (Referential Example 1)-3). The data set is classed as in vivo. To be noted: Rattus norvegicus, iv, anesthetized SHR, dose descending mean blood pressure by 20%; read-out: ED₂₀ (mg/kg, i.v.). How it is done: Rats were anesthetized with urethane-α-chloralose (1 g/kg - 25 mg/kg; intraperitoneally). Mean blood pressure was measured by a pressure transducer through a cannula inserted into the carotid artery. The compound was cumulatively administered every 30 minutes through the cannula inserted into the jagular vein. The change in blood pressure was expressed as percent of the blood pressure before the administration of the compound. And the ED₂₀ value, which was the dose required for descending blood pressure to an extent of 20%, was calculated from the dose-response curve.

The nature of data set [2]: Acute toxicity (oral administration). As to conditions: mouse, in vivo, male ddY mice, read-out: LD₅₀. How it is done:
Using male ddY mice (4 week old), acute toxicity on the oral administration of the compound of the present invention was examined [test compound: N-cyano-N′-(2-nitroxyethyl)-3-pyridinecarboximidamide (compound (13))]. As a result, LD₅₀ was about 400 mg/kg.

The subject of the next data set is isolated rat aortae. Kind of data set: Vasorelaxing effect on the isolated rat aortae (Referential Example 1)-1). As to conditions: inhibition of contraction induced by 40 mM KCl. How it is done: The compounds of the present invention were tested for their physiological activities by measuring the tension of isolated rat aortae isometrically.
Thoracic aortae obtained from male Wistar rats (weighing 250-350 g) were cut into ring segments about 3 mm long. The ring preparation was placed in an organ bath filled with 10 ml of Krebs-Ringer solution that was maintained at 37°C and gassed with 95% O₂ - 5% CO₂.
The preparation in the organ bath was allowed to equilibrate under resting tension of 1 g. After equilibration period, the solution in the organ bath was replaced with an isotonic solution containing 40 mM KCl to contract the preparation.
After the contraction induced by KCl had reached plateau, the concentration-response relationship for the test compound was determined by means of cumulative addition.
The relaxation response of the test compounds was expressed as the percent inhibition of the contraction induced by KCl, and the IC₅₀ value, which is a concentration required for inhibiting the contraction induced by KCl to an extent of 50%, was calculated by the Probit method from the concentration-response curve.

The test system of data set [3] is spontaneous hypertensive rats (SHR). As to the kind of experiment: Hypotensive effect on spontaneous hypertensive rats (orally). The data set is classed as in vivo. As to conditions: systolic pressure 2 hours after administration. How it is done: Systolic pressure of the rats fasted for 24 hour was measured by using the tail cuff method before and 2 hours after administration of the compound. The compound was dissolved in a mixed solvent of polyethylene glycol 200 : physiological saline = 1:1. The control group was administered the solvent alone. The change in blood pressure was expressed as percent of the blood pressure before the administration of the compound in respective groups.

In the next data set the test system is male ddY mice. Kind of data set: Effect on hypoxia (survival time in mice). It is filed as in vivo. How it is done:
The effect of the compound of the present invention [test compound: N-cyano-N′-(2-nitroxyethyl)-3-pyridinecarboximidamide (compound (13))] on hypoxia was examined in male ddY mice (4 week old). Mice were exposed to a gas mixture of 96% N₂ - 4% O₂ that was streamed in a flow rate of 5 ℓ/min.
The time from the onset of the gas stream till the stop of respiration [survival time (sec)] was measured.
The test compound was orally administered in the dosage form of a 2% suspension in gum arabic 30 minutes before the onset of the gas streaming. The control group was administered a gum arabic suspension only.

On to `N#CNC(=NCCO[N+](=O)[O-])c1cccnc1` [Compound (13), N-cyano-N'-(2-nitroxyethyl)-3-pyridinecarboximidamide], for which the ED20 in data set [1] was determined as 0.01 mg/kg. Besides, in data set [2], the LD50 was about 400 mg/kg. Further, the IC50 (as a rule, the concentration that gives 50% inhibition) in the data set with isolated rat aortae was determined as 5.1 µM. The “Decreasing Rate of Blood Pressure (%)” value worked out at 6.76 ± 1.53% in data set [3] (0.3 mg/kg p.o.), 9.12 ± 2.41% in data set [3] (0.5 mg/kg p.o.), 27.31 ± 2.32% in data set [3] (1.0 mg/kg p.o.) and 49.99 ± 2.48% in data set [3] (3.0 mg/kg p.o.). The “Survival Time (sec) mean ± S.E.M.” value with male ddY mice (0.3 mg/kg orally 30 minutes before 96% N₂ - 4% O₂) was found to be 130.27 ± 9.32 s; in the data set on male ddY mice (1.0 mg/kg orally 30 minutes before 96% N₂ - 4% O₂), 201.00 ± 13.40 s; in the data set on male ddY mice (3.0 mg/kg orally 30 minutes before 96% N₂ - 4% O₂), 523.15 ± 48.57 s.
